Measured values: PMC5515969, “Effects of 31 FDA approved small-molecule kinase inhibitors on isolated rat liver mitochondria” (Archives of Toxicology, 2016)
Counter-ions that a name gives are not always drawn. Like-named read-outs stand apart in the source and are kept apart here.

Key:
[1] = therapeutic maximal blood concentration, ref product labeling, cited from earlier work
[2] = design: method as in product labeling; conditions: ref product labeling, cited from earlier work
[3] = molecular target: T1, RCC II (Rattus norvegicus, UniProt P21913+Q641Z9+Q6PCT8+Q920L2); test: RCC II activity in submitochondrial particles; format: biochemical; design: key: activity relative to DMSO-treated controls (control set as 1 = 100%); conditions: relative to DMSO treated samples
T1 construct: Submitochondrial particles were prepared by subjecting the intact mitochondria to three successive freeze–thaw cycles; from tissue; host or cells: rat liver mitochondria, used as submitochondrial particles
T1 sequence (Q920L2 35-656): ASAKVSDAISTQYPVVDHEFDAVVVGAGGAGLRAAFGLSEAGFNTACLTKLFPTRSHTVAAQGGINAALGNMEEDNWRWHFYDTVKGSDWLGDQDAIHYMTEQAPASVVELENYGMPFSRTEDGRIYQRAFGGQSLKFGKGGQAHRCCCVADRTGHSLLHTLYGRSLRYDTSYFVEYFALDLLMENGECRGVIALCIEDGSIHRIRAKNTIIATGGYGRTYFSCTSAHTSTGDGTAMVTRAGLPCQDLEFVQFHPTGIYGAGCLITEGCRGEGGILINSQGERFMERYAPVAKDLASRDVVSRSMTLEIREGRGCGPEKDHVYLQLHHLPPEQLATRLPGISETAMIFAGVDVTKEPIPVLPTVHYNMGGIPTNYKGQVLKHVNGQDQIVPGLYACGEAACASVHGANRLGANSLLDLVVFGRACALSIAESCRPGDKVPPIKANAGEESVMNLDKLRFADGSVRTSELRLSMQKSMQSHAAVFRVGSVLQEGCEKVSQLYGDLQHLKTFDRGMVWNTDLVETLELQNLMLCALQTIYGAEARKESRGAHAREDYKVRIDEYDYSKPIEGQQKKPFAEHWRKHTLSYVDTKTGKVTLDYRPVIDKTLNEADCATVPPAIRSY
T1 sequence (P21913 31-282): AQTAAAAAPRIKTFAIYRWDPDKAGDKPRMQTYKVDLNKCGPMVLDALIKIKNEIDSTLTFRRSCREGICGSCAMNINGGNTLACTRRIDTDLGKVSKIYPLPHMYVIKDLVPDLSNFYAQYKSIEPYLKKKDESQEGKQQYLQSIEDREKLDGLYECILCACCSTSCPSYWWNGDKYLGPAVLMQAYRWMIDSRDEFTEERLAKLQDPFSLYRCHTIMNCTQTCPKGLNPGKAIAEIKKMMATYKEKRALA
T1 sequence (Q641Z9 1-169): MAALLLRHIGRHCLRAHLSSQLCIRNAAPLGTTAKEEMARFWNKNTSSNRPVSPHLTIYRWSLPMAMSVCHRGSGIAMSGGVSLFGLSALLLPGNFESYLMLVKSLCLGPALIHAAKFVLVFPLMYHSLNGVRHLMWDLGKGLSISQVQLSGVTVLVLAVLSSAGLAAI
T1 sequence (Q6PCT8 57-159): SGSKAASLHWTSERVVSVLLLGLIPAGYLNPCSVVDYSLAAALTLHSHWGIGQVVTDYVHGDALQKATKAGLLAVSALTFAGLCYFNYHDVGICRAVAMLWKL
Summary of the method: (§1)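 Inhibitors preincubated 15 min with submitochondrial particles (1 mg/ml) before activity readout. RCC I (rotenone-sensitive fraction) and I/V: A340, and RCC II: A600, each every 1 min for 6 min; RCC III/IV: A550 every 10 s for 2 min. Activities relative to DMSO control set as 1.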

[4] = Solubility of drug in DMSO stock / reaction buffer at multiples of Cmax; format: physicochemical
Text: Supplement 204_2016_1918_MOESM3_ESM.xlsx, sheet "Sheet1" | column: 100 Cmax; 50 Cmax; note

[5] = test system: RCC V; test: RCC V activity in submitochondrial particles; format: biochemical, rat; conditions: relative to DMSO treated samples; as to RCC V at 5XCmax: key: 0 indicates that the drug had no effects (negative)
Summary of the method: as §1

[6] = test system: RCC I; test: RCC I activity in submitochondrial particles; format: biochemical, rat; design: key to RCC I at 10XCmax / RCC I at 100XCmax / RCC I at 50XCmax / RCC I at 30XCmax / RCC I at 20XCmax: activity relative to DMSO-treated controls (control set as 1 = 100%); conditions: 10XCmax; relative to DMSO treated samples
Summary of the method: as §1

[7] = cited from earlier work
[8] = test system: isolated rat liver mitochondria; test: Mitochondrial oxygen consumption (glutamate/malate or succinate driven, state 4 and state 3); format: biochemical; conditions: DMSO treated samples set as 1; as to State 3 respiration driven by succinate at 10XCmax: key: 0 indicates that the drug had no effects (negative); as to State 3 respiration driven by succinate at 1XCmax: key: 0 indicates that the drug had no effects (negative)
Summary of the method: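 Rat liver mitochondria (1 mg/ml protein) exposed 5 min to kinase inhibitors in 0.1% DMSO, then O2 consumption measured by Clark-type electrode with glutamate/malate or succinate (state 4), ADP added after 3 min (state 3). Rates normalized to 0.1% DMSO controls set to 1.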

[9] = test system: isolated rat liver mitochondria; conditions: positive control alamethicin treated samples
[10] = test system: isolated rat liver mitochondria; test: Mitochondrial ROS production (CM-H2DCFDA); conditions: DMSO treated samples set as 1
[11] = test system: isolated rat liver mitochondria; test: Mitochondrial swelling (absorbance at 535 nm); format: biochemical; conditions: difference in signal between KI and DMSO treated samples at the end of experiments; as to Swelling 5XCmax: key: 0 indicates that the drug had no effects (negative)
[12] = test system: isolated rat liver mitochondria; test: Mitochondrial inner membrane potential (MMP), Rhodamine 123; format: biochemical; conditions: difference in signal between KI and DMSO treated samples at the end of experiments
Text: Fig. 3 KI effects on mitochondrial inner membrane potential (MMP). […] In a, c, data are means and standard derivations from three separate experiments. *p < 0.05 as compared to DMSO-treated samples at the end of experiments. In b, data are means of two independent experiments

C#Cc1cccc(Nc2ncnc3cc(OCCOC)c(OCCOC)cc23)c1 [erlotinib hydrochloride]
3.44 µM: Cmax ([1]; read-out: Cmax at µM)
W&P: Myocardial Infarction/Ischemia: Labeling for cardiotoxicity ([2]; BBW: black box warning, W&P: Warnings and Precautions)
W&P: fatal DILI: Labeling for DILI ([7]; in vivo)
not soluble: Solubility of stock for 50 Cmax ([4]; DMSO stock for 50 Cmax) | Solubility of stock for 100 Cmax ([4]; DMSO stock for 100 Cmax)
0: RCC II at 1.0XCmax ([3]; 1.0XCmax) | RCC II at 2.5XCmax ([3]; 2.5XCmax) | RCC II at 5XCmax ([3]; 5XCmax) | RCC II at 10XCmax ([3]; 10XCmax) | RCC V at 5XCmax ([5]; 5XCmax) | RCC I at 10XCmax [6] | State 3 respiration driven by glutamate/malate at 1XCmax ([8]; 1XCmax) | State 3 respiration driven by succinate at 1XCmax ([8]; 1XCmax) | State 4 respiration driven by glutamate/malate at 1XCmax ([8]; 1XCmax) | State 4 respiration driven by succinate at 1XCmax ([8]; 1XCmax) | State 3 respiration driven by glutamate/malate at 2.5XCmax ([8]; 2.5XCmax) | State 3 respiration driven by succinate at 2.5XCmax ([8]; 2.5XCmax) | State 4 respiration driven by glutamate/malate at 2.5XCmax ([8]; 2.5XCmax) | State 4 respiration driven by succinate at 2.5XCmax ([8]; 2.5XCmax) | State 3 respiration driven by glutamate/malate at 5XCmax ([8]; 5XCmax) | State 3 respiration driven by succinate at 5XCmax ([8]; 5XCmax) | State 4 respiration driven by glutamate/malate at 5XCmax ([8]; 5XCmax) | State 4 respiration driven by succinate at 5XCmax ([8]; 5XCmax) | State 3 respiration driven by glutamate/malate at 10XCmax ([8]; 10XCmax) | State 3 respiration driven by succinate at 10XCmax ([8]; 10XCmax) | State 4 respiration driven by glutamate/malate at 10XCmax ([8]; 10XCmax) | State 4 respiration driven by succinate at 10XCmax ([8]; 10XCmax) | Cytochrome c release 1XCmax ([9]; 1XCmax) | Cytochrome c release 2.5XCmax ([9]; 2.5XCmax) | Cytochrome c release 5XCmax ([9]; 5XCmax) | Cytochrome c release 10XCmax ([9]; 10XCmax) | ROS measured by CM-H2DCFDA at 1XCmax ([10]; 1XCmax) | ROS measured by CM-H2DCFDA at 2.5XCmax ([10]; 2.5XCmax) | ROS measured by CM-H2DCFDA at 5XCmax ([10]; 5XCmax) | ROS measured by CM-H2DCFDA at 10XCmax ([10]; 10XCmax) | Swelling 1XCmax ([11]; 1XCmax) | Swelling 2.5XCmax ([11]; 2.5XCmax) | Swelling 5XCmax ([11]; 5XCmax) | Swelling 10XCmax ([11]; 10XCmax) | MMP measured by Rhodamine 123 at 1XCmax ([12]; 1XCmax) | MMP measured by Rhodamine 123 at 2.5XCmax ([12]; 2.5XCmax) | MMP measured by Rhodamine 123 at 5XCmax ([12]; 5XCmax) | MMP measured by Rhodamine 123 at 10XCmax ([12]; 10XCmax)
83.52±2.96: RCC V at 10XCmax ([5]; 10XCmax)
1480 ng/mL: Cmax [1]
1: Potential for cardiotoxicity (based on labeling) [2] | DILI potential (based on labeling) ([7]; 1 = DILI positive, 0 = negative, ref product labeling)
